Results as given in patent US6753348B2, “BTK inhibitors and methods for their identification and use” (Parker Hughes Institute, priority 1998, dated 2004).

Legend:
[1] = target: HCK (Homo sapiens, UniProt P08631); experiment: Cell-free tyrosine kinase inhibition assay HCK from transfected COS-7 cells; format: biochemical
[2] = system: fetal liver derived human mast cells; experiment: IgE/anti-IgE stimulated leukotriene C4 release, fetal liver derived human mast cells; format: cell-based; details: 100 μM, 30 min before anti-IgE challenge
Protocol: FIG. 27: Effect of LFM and LFM-A8 on IgE receptor/Fc epsilon RI-mediated human mast cell leukotriene C4 release. IgE sensitized fetal liver derived human mast cells were stimulated by challenging with anti-IgE. To study the effect of the test compounds, mast cells were incubated with vehicle or 100 μM LFM or LFM-A8 prior to challenge with anti-IgE. Leukotriene C4 levels were measured in cell-free supernatants by ELISA. Vehicle treated 10^6 mast cells released 12.5±2.2 ng leukotriene C4. The results are expressed as percent of vehicle-treated controls (N=4). The data points represent the mean±SEM values. *P<0.05 compared to vehicle-treated control, as determined by Student's t test.
Mast Cell Cultures. RBL-2H3 mast cells were a gift from Dr. Reuben P. Siraganian (Laboratory of Microbiology and Immunology, National Institute of Dental Research, National Institute of Health). […]
We next sought to determine the effect of LFM-A8 on IgE/FcεRI-mediated human mast cell leukotriene C4 release and compare its potency with that of LFM. […] The Fc[…] receptors of fetal liver-derived human mast cells were crosslinked with anti-IgE and the resulting mast cell leukotriene C4 release was quantitated by ELISA (Malaviya, R. and Abraham, S. N., (1995) Methods Enzymol, 253, 27-43).

[3] = system: RBL-2H3 rat mast cells; experiment: IgE/FcεRI receptor mediated leukotriene C4 release, RBL-2H3 mast cells; format: cell-based; details: RBL-2H3, IgE/DNP-BSA challenge, 30 min pre-incubation, 1-100 μM, N = 3-4, read-out: EC50 (mean ± SEM), inhibition of leukotriene C4 release
Protocol: Mast Cell Cultures. RBL-2H3 mast cells were a gift from Dr. Reuben P. Siraganian (Laboratory of Microbiology and Immunology, National Institute of Dental Research, National Institute of Health). The cells were maintained as monolayer cultures in 75- or 150-cm^2 flask in Eagle's essential medium supplemented with 20% fetal calf serum. Human fetal livers (16 to 21 weeks of gestational age) were obtained from prostaglandin-induced human abortuses. Subsequently, single cell suspensions were prepared and mononuclear cells were isolated by centrifugation on Ficoll-Hypaque gradients as described (Malaviya, R., et al., (1999) J Biol Chem, 274, 27028-27038). Isolated cells were cultured for 8 weeks in the presence of 100 ng/ml rhSCF, 2 ng/ml rhIL-4 (Malaviya, R., et al., (1999) J Biol Chem, 274, 27028-27038; Xia, H. Z., et al., (1997) J Immunol, 159, 2911-2921). Culture medium was replaced with fresh medium once a week for the first 2 weeks and twice a week thereafter. All human tissue specimens were used following the guidelines of the Parker Hughes Institute Institutional Review Board on the Use of Human Subjects in Research for secondary use of pathologic or surgical tissue. At the end of the 8 weeks the fetal liver derived human mast cell culture contained 70-90 percent mast cells, based on toluidine blue and tryptase staining (Xia, H. Z., et al., (1997) J Immunol, 159, 2911-2921).
Stimulation of Mast Cells. RBL-2H3 rat mast were sensitized with monoclonal anti-DNP IgE antibody (0.24 mg/ml) for 1 h at 37° C. in a 48-well tissue culture plate. Unbound IgE was removed by washing the cells with PIPES-buffered saline. After washing, PIPES-buffered saline containing 1 mM calcium chloride was added to the monolayers of the RBL-2H3 cells. The cells were challenged with 20 ng/ml DNP-BSA for 30 min at 37° C. The plate was centrifuged at 200 g for 10 min at 4° C. Supernatants were removed and saved. Fetal liver-derived human mast cells were resuspended in culture medium at a cell density of 5×10^6/ml and sensitized with human IgE (150 μg/ml) for 3 h at 4° C. After sensitization the cells were washed with tyrode buffer containing 1 mM calcium and 1 mM magnesium and challenged with mouse monoclonal anti-human IgE (40 μg/ml) for 30 min at 37° C. To study the effect of test drugs, RBL-2H3 rat mast cells or human mast cells were incubated with the drugs at the indicated concentrations or vehicle for 30 min prior to antigen challenge.
Mediator Release Assay. Leukotriene C4 levels were estimated in cell free supernatants of mast cells by immunoassay (Malaviya, R. and Abraham, S. N., (1995) Methods Enzymol, 253, 27-43).
Mast cells release large amounts of leukotrienes upon IgE receptor ligation. Because of the reported ability of LFM as a mast cell inhibitor, we utilized 13 analogues of LFM (Table 1) and examined their effect on IgE/FcεERI receptor mediated mast cell leukotriene C4 release. RBL-2H3 cells, a mucosal mast cell line, were treated with 5 different concentrations of the compounds ranging from 1 μM to 100 μM or vehicle for 30 min before challenge with antigen (DNP-BSA) at 37° C. Leukotriene C4 release was quantitated in the extracellular medium employing a previously described ELISA (Malaviya, R. and Abraham, S. N., (1995) Methods Enzymol, 253, 27-43).

Chain of HCK (P08631 whole entry, species assumed): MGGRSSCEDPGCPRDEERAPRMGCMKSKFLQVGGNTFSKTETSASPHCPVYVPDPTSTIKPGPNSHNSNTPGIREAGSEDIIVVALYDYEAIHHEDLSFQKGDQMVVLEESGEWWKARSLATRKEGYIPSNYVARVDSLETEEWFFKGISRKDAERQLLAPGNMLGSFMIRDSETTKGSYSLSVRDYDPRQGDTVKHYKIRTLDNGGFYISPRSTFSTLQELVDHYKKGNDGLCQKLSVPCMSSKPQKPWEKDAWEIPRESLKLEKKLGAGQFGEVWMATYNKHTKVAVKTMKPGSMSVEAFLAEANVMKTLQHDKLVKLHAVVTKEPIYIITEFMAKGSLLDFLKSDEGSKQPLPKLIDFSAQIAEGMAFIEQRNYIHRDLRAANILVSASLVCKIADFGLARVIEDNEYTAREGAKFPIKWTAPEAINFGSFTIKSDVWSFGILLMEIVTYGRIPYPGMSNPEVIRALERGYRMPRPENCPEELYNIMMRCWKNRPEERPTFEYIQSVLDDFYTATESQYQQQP

EC50 [3]	SMILES	IC50 [1]	effect on enzymatic activity of HCK ([1]; concentrations as high as 100 μg/ml (~278 μM))	leukotriene C4 release from IgE/anti-IgE-stimulated human mast cells [2]
–	C/C(O)=C(\C#N)C(=O)Nc1cc(Br)ccc1Br [LFM-A13, α-Cyano-β-hydroxy-β-methyl-N-(2,5-dibromophenyl)-propenamide]	> 278 µM	did not affect the enzymatic activity	–
28 ± 1 µM	CC(O)=C(C#N)C(=O)Nc1cccc(C(F)(F)F)c1 [LFM-A8, α-Cyano-β-hydroxy-β-methyl-N-[3-(trifluoromethyl)phenyl]-propenamide]	–	–	significantly inhibited
